Laboratory results: the supplement of paper PMC6045584
± gives the standard deviation of the averaged measurements.

Assays:
CAMPTOTHECIN [1] = compound: T1, CC[C@@]1(O)C(=O)OCc2c1cc1n(c2=O)Cc2cc3ccccc3nc2-1 [CAMPTOTHECIN]; experiment: area under dose-response curve of surviving fraction (unscaled, Aref=0) (surviving fraction x log10(nM)); higher = more resistant; conditions: exposure time: 5 days; dose range 0.5-1000 nM
How it was run: (§1)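 Each tumour cell line was screened three times in 384-well plates, receiving eight inhibitor concentrations from 0.5 to 1000 nM for five days. CellTiter-Glo luminescence gave viability, normalised to DMSO-only wells. Using the drc R package, surviving fractions were fitted with 3-parameter logistic dose-response curves, and the unscaled activity area over log10 dose (Aref = 0) was taken as the area under the curve.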

CELECOXIB [2] = compound: T2, Cc1ccc(-c2cc(C(F)(F)F)nn2-c2ccc(S(N)(=O)=O)cc2)cc1 [CELECOXIB]; experiment: as above; conditions: exposure time: 5 days; dose range 0.5-1000 nM
How it was run: as §1

[3] = compound: CC(=O)NCC(=O)N1[C@@H]2CC[C@H]1c1ccc(Nc3ncc(C(F)(F)F)c(NC4CCC4)n3)cc12; experiment: as above; conditions: exposure time: 5 days; dose range 0.5-1000 nM
How it was run: as §1

PACLITAXEL [4] = compound: T3, CC(=O)O[C@H]1C(=O)[C@@]2(C)[C@H]([C@H](OC(=O)c3ccccc3)[C@]3(O)C[C@H](OC(=O)[C@H](O)[C@@H](NC(=O)c4ccccc4)c4ccccc4)C(C)=C1C3(C)C)[C@]1(OC(C)=O)CO[C@@H]1C[C@@H]2O [PACLITAXEL]; experiment: as above; conditions: exposure time: 5 days; dose range 0.5-1000 nM
How it was run: as §1

[5] = compound: CC(=O)c1c(C)c2cnc(Nc3ccc(N4CCNCC4)cn3)nc2n(C2CCCC2)c1=O; experiment: as above; conditions: exposure time: 5 days; dose range 0.5-1000 nM
How it was run: as §1

CARBOPLATIN [6] = compound: T4, O=C(O)C1(C(=O)O)CCC1.[NH2-].[NH2-].[Pt+2] [CARBOPLATIN]; experiment: as above; conditions: exposure time: 5 days; dose range 0.5-1000 nM
How it was run: as §1

GEFITINIB [7] = compound: T5, COc1cc2ncnc(Nc3ccc(F)c(Cl)c3)c2cc1OCCCN1CCOCC1 [GEFITINIB]; experiment: as above; conditions: exposure time: 5 days; dose range 0.5-1000 nM
How it was run: as §1

YM155 [8] = compound: T6, COCC[n+]1c2c(n(Cc3cnccn3)c1C)C(=O)c1ccccc1C2=O [YM155]; experiment: as above; conditions: exposure time: 5 days; dose range 0.5-1000 nM
How it was run: as §1

OSI-906 [9] = compound: T7, C[C@]1(O)C[C@@H](c2nc(-c3ccc4ccc(-c5ccccc5)nc4c3)c3c(N)nccn32)C1 [OSI-906]; experiment: as above; conditions: exposure time: 5 days; dose range 0.5-1000 nM
How it was run: as §1

CAMPTOTHECIN [10] = compound: T1, CAMPTOTHECIN; experiment: surviving fraction relative to DMSO-only wells; higher = less growth inhibition; conditions: exposure time: 5 days
How it was run: (§2)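 Surviving fraction is CellTiter-Glo luminescence divided by the median of wells given DMSO only. For this, log-phase tumour cell lines went into 384-well plates at 250–500 cells per well and, 24 hours later, into five days of continuous inhibitor exposure at 0.5, 1, 5, 10, 50, 100, 500 and 1000 nM. Lines were screened three times and retained only if replicate Pearson r >0.7 and median Z' >0.3.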

CELECOXIB [11] = compound: T2, CELECOXIB; experiment: as above; conditions: exposure time: 5 days
How it was run: as §2

[12] = compound: CC(=O)NCC(=O)N1[C@@H]2CC[C@H]1c1ccc(Nc3ncc(C(F)(F)F)c(NC4CCC4)n3)cc12; experiment: as above; conditions: exposure time: 5 days
How it was run: as §2

PACLITAXEL [13] = compound: T3, PACLITAXEL; experiment: as above; conditions: exposure time: 5 days
How it was run: as §2

[14] = compound: CC(=O)c1c(C)c2cnc(Nc3ccc(N4CCNCC4)cn3)nc2n(C2CCCC2)c1=O; experiment: as above; conditions: exposure time: 5 days
How it was run: as §2

CARBOPLATIN [15] = compound: T4, CARBOPLATIN; experiment: as above; conditions: exposure time: 5 days
How it was run: as §2

GEFITINIB [16] = compound: T5, GEFITINIB; experiment: as above; conditions: exposure time: 5 days
How it was run: as §2

YM155 [17] = compound: T6, YM155; experiment: as above; conditions: exposure time: 5 days
How it was run: as §2

OSI-906 [18] = compound: T7, OSI-906; experiment: as above; conditions: exposure time: 5 days
How it was run: as §2

HS57T LUNG
area under dose-response curve (CAMPTOTHECIN [1]): 1.43
area under dose-response curve (CELECOXIB [2]): 3.47
area under dose-response curve [3]: 2.46
area under dose-response curve (PACLITAXEL [4]): 0.449
area under dose-response curve [5]: 3.56
area under dose-response curve (CARBOPLATIN [6]): 3.58
area under dose-response curve (GEFITINIB [7]): 3.31
area under dose-response curve (YM155 [8]): 1.67
area under dose-response curve (OSI-906 [9]): 2.92

U2OS BONE
surviving fraction (CAMPTOTHECIN [10]; 0.5 nM): 0.924 ± 0.055
surviving fraction (CAMPTOTHECIN [10]; 1 nM): 0.943 ± 0.054
surviving fraction (CAMPTOTHECIN [10]; 5 nM): 0.948 ± 0.025
surviving fraction (CAMPTOTHECIN [10]; 10 nM): 0.733 ± 0.03
surviving fraction (CAMPTOTHECIN [10]; 50 nM): 0.567 ± 0.011
surviving fraction (CAMPTOTHECIN [10]; 100 nM): 0.464 ± 0.0056
surviving fraction (CAMPTOTHECIN [10]; 500 nM): 0.121 ± 0.013
surviving fraction (CAMPTOTHECIN [10]; 1000 nM): 0.0677 ± 0.0097
surviving fraction (CELECOXIB [11]; 0.5 nM): 0.98 ± 0.055
surviving fraction (CELECOXIB [11]; 1 nM): 1.03 ± 0.032
surviving fraction (CELECOXIB [11]; 10 nM): 1.03 ± 0.048
surviving fraction (CELECOXIB [11]; 50 nM): 1.05 ± 0.032
surviving fraction (CELECOXIB [11]; 100 nM): 1.09 ± 0.016
surviving fraction (CELECOXIB [11]; 500 nM): 1.01 ± 0.016
surviving fraction (CELECOXIB [11]; 1000 nM): 1 ± 0.043
surviving fraction ([12]; 0.5 nM): 1.07 ± 0.016
surviving fraction ([12]; 1 nM): 1.02 ± 0.04
surviving fraction ([12]; 5 nM): 1.04 ± 0.061
surviving fraction ([12]; 10 nM): 1.01 ± 0.014
surviving fraction ([12]; 50 nM): 0.725 ± 0.015
surviving fraction ([12]; 100 nM): 0.483 ± 0.0044
surviving fraction ([12]; 500 nM): 0.314 ± 0.016
surviving fraction ([12]; 1000 nM): 0.225 ± 0.011
surviving fraction (PACLITAXEL [13]; 0.5 nM): 1 ± 0.037
surviving fraction (PACLITAXEL [13]; 1 nM): 0.985 ± 0.016
surviving fraction (PACLITAXEL [13]; 5 nM): 0.488 ± 0.011
surviving fraction (PACLITAXEL [13]; 10 nM): 0.271 ± 0.012
surviving fraction (PACLITAXEL [13]; 50 nM): 0.106 ± 0.0087
surviving fraction (PACLITAXEL [13]; 100 nM): 0.0817 ± 0.0093
surviving fraction (PACLITAXEL [13]; 500 nM): 0.0593 ± 0.0085
surviving fraction (PACLITAXEL [13]; 1000 nM): 0.059 ± 0.001
surviving fraction ([14]; 0.5 nM): 1.02 ± 0.044
surviving fraction ([14]; 1 nM): 1.01 ± 0.04
surviving fraction ([14]; 5 nM): 1.06 ± 0.021
surviving fraction ([14]; 10 nM): 1.06 ± 0.033
surviving fraction ([14]; 50 nM): 1.06 ± 0.034
surviving fraction ([14]; 100 nM): 1.06 ± 0.033
surviving fraction ([14]; 500 nM): 0.979 ± 0.032
surviving fraction ([14]; 1000 nM): 0.981 ± 0.062
surviving fraction (CARBOPLATIN [15]; 0.5 nM): 1.04 ± 0.044
surviving fraction (CARBOPLATIN [15]; 1 nM): 1.05 ± 0.046
surviving fraction (CARBOPLATIN [15]; 5 nM): 1.07 ± 0.033
surviving fraction (CARBOPLATIN [15]; 10 nM): 1.1 ± 0.028
surviving fraction (CARBOPLATIN [15]; 50 nM): 1.1 ± 0.049
surviving fraction (CARBOPLATIN [15]; 100 nM): 1.077 ± 0.0098
surviving fraction (CARBOPLATIN [15]; 500 nM): 1.06 ± 0.016
surviving fraction (CARBOPLATIN [15]; 1000 nM): 1.05 ± 0.032
surviving fraction (GEFITINIB [16]; 0.5 nM): 1.03 ± 0.057
surviving fraction (GEFITINIB [16]; 1 nM): 0.9987 ± 0.0084
surviving fraction (GEFITINIB [16]; 5 nM): 1.03 ± 0.015
surviving fraction (GEFITINIB [16]; 10 nM): 0.989 ± 0.0078
surviving fraction (GEFITINIB [16]; 50 nM): 1.04 ± 0.027
surviving fraction (GEFITINIB [16]; 100 nM): 1.04 ± 0.031
surviving fraction (GEFITINIB [16]; 500 nM): 0.959 ± 0.0095
surviving fraction (GEFITINIB [16]; 1000 nM): 0.98 ± 0.048
surviving fraction (YM155 [17]; 0.5 nM): 1.02 ± 0.026
surviving fraction (YM155 [17]; 1 nM): 1.005 ± 0.0056
surviving fraction (YM155 [17]; 5 nM): 0.616 ± 0.036
surviving fraction (YM155 [17]; 10 nM): 0.304 ± 0.043
surviving fraction (YM155 [17]; 50 nM): 0.033 ± 0.001
surviving fraction (YM155 [17]; 100 nM): 0.023
surviving fraction (YM155 [17]; 500 nM): 0.021
surviving fraction (YM155 [17]; 1000 nM): 0.0247 ± 0.00058
surviving fraction (OSI-906 [18]; 0.5 nM): 0.979 ± 0.038
surviving fraction (OSI-906 [18]; 1 nM): 0.949 ± 0.031
surviving fraction (OSI-906 [18]; 5 nM): 0.958 ± 0.013
surviving fraction (OSI-906 [18]; 10 nM): 0.939 ± 0.021
surviving fraction (OSI-906 [18]; 50 nM): 0.967 ± 0.038
surviving fraction (OSI-906 [18]; 100 nM): 0.914 ± 0.026
surviving fraction (OSI-906 [18]; 500 nM): 0.872 ± 0.026
surviving fraction (OSI-906 [18]; 1000 nM): 0.863 ± 0.026
area under dose-response curve (CAMPTOTHECIN [1]): 2.05
area under dose-response curve (CELECOXIB [2]): 3.42
area under dose-response curve [3]: 2.43
area under dose-response curve (PACLITAXEL [4]): 1.15
area under dose-response curve [5]: 3.41
area under dose-response curve (CARBOPLATIN [6]): 3.52
area under dose-response curve (YM155 [8]): 1.16
area under dose-response curve (OSI-906 [9]): 3.08
